Measured values from US11433052B2, “5-LOX and COX-2 inhibition for treatment in connection with blood-brain barrier dysfunction” (University of Kentucky Research Foundation, priority 2019, dated 2022).

Assays:
[1] = tested on: brain capillaries from pilocarpine-induced status epilepticus (SE) rats; assay: Texas Red leakage from capillary lumens, seizure-mediated capillary leakage in SE rats; format: in vivo, rat; conditions: 10 mg/kg LCF i.p., 7 injections; capillaries isolated 2 d after SE-induction with pilocarpine
Protocol: With reference to FIGS. 2A and 2B, the effect of dual LOX-COX inhibition on seizure-mediated capillary leakage was tested. Rats were treated with 10 mg/kg LCF (i.p., 7 injections). Capillaries were isolated 2 d after status epilepticus (SE)-induction with pilocarpine. Texas Red (TR) leakage from capillary lumens was monitored by confocal microscopy. Mannitol served as a positive control for barrier opening. (Hartz et al., 2012). Data includes mean±SEM (n=10 capillaries); arbitrary units (0-255). B) S100β ELISA (Millipore). Statistics: ***p<0.001 (ANOVA). […] With reference to FIGS. 4A and 4B, the effect of a combination of a LOX inhibitor and a COX inhibitor on seizure-mediated capillary leakage was tested. Rats were treated with zileuton (ZLT) and celecoxib (CEL) (5 mg/kg and 10 mg/kg; i.p., 7 injections). Capillaries were isolated 2 d after SE-induction with pilocarpine. Texas Red (TR) leakage from capillary lumens monitored by confocal microscopy (mannitol: positive control for barrier opening; Hartz et al., 2012). Data: mean±SEM (n=10 capillaries); arbitrary units (0-255).

MMP = MMP activity in isolated capillaries exposed to glutamate; format: cell-based, rat; conditions: 100 μM glutamate with 100 μM LCF
Protocol: (§1) With reference to FIGS. 1A-1C, the effect of dual LOX-COX inhibition on glutamate-mediated capillary leakage was tested. Isolated rat brain capillaries were exposed to 100 μM glutamate with or without 100 μM of the dual LOX/COX inhibitor, licofelone (LCF). […] FIG. 1B is a bar graph illustrating MMP activity assessed in isolated capillaries exposed to 100 μM glutamate with or without LCF.

MMP-9 = assay: Western blot of MMP-9 protein expression in capillaries exposed to glutamate; format: cell-based; conditions: isolated rat brain capillaries, 100 μM glutamate with 100 μM LCF
Protocol: as §1, with “1A includes Western blots showing MMP-2 and MMP-9 protein expression” for “1B is a bar graph illustrating MMP activity assessed”, “isolated rat brain” for “isolated”, “LCF. β-Actin was used as protein loading control.” for “LCF.”

S100β = assay: Serum S100β ELISA in SE rats; format: in vivo, rat; conditions: 7 injections, 2 d after SE-induction with pilocarpine
Protocol: With reference to FIGS. 2A and 2B, the effect of dual LOX-COX inhibition on seizure-mediated capillary leakage was tested. Rats were treated with 10 mg/kg LCF (i.p., 7 injections). Capillaries were isolated 2 d after status epilepticus (SE)-induction with pilocarpine. Serum levels of S100β were assessed by ELISA (Millipore). Statistics: ***p<0.001 (ANOVA). Data: mean±SEM. […] The effect of dual LOX-COX inhibition on seizure-mediated capillary leakage was further tested in rates treated with either 5 mg/kg or 10 mg/kg LCF (i.p., 7 injections). Capillaries were isolated 2 d after SE-induction with pilocarpine. Serum levels of S100β were assessed by ELISA (Millipore). […] With reference to FIGS. 4A and 4B, the effect of a combination of a LOX inhibitor and a COX inhibitor on seizure-mediated capillary leakage was tested. Rats were treated with zileuton (ZLT) and celecoxib (CEL) (5 mg/kg and 10 mg/kg; i.p., 7 injections). Capillaries were isolated 2 d after SE-induction with pilocarpine. Serum levels of S100β were assessed by ELISA (Millipore). Statistics: ***p<0.001 (ANOVA). Data: mean±SEM.

[2] = tested on: isolated rat brain capillaries; assay: Texas Red leakage assay, glutamate-mediated capillary leakage; format: cell-based; conditions: 100 μM glutamate with 100 μM LCF
Protocol: (§2) With reference to FIGS. 1A-1C, the effect of dual LOX-COX inhibition on glutamate-mediated capillary leakage was tested. Isolated rat brain capillaries were exposed to 100 μM glutamate with or without 100 μM of the dual LOX/COX inhibitor, licofelone (LCF).

MMP-2 = assay: Western blot of MMP-2 protein expression in capillaries exposed to glutamate; format: cell-based; conditions: isolated rat brain capillaries, 100 μM glutamate with 100 μM LCF
Protocol: as §2, with “(LCF). […] FIG. 1A includes Western blots showing MMP-2 and MMP-9 protein expression in isolated rat brain capillaries exposed to 100 μM glutamate with or without LCF. β-Actin was used as protein loading control.” for “(LCF).”

## CC1(C)Cc2c(-c3ccccc3)c(-c3ccc(Cl)cc3)c(CC(=O)O)n2C1 [licofelone]
[1]
  capillary leakage in SE rats (Texas Red leakage): prevents capillary leakage
MMP
  MMP activity: did not show increased activity
MMP-9
  MMP-9 protein levels (Western blot): did not show increased protein levels
S100β; 5 mg/kg or 10 mg/kg LCF i.p.
  capillary leakage as reflected by S100β levels in serum from SE rats, dose dependence: inhibit capillary leakage in a dose-dependent manner
S100β; 10 mg/kg LCF i.p.
  S100β levels in serum from SE rats: reduces S100β levels
[2]
  glutamate-mediated capillary leakage (Texas Red leakage): reduced glutamate-mediated capillary leakage
[2]; listed as LCF
  glutamate-mediated capillary leakage (Texas Red leakage): glutamate-mediated barrier leakage reduction
MMP-2
  MMP-2 protein levels (Western blot): did not show increased protein levels
